# Results from US20260248820A1, “USES OF HYDROGENATED CANNABIDIOL (H4CBD) AND ADVANCED METABOLIC SYNDROME” (The Regents of the University of California, priority 2022, published 2026).
# “Also recorded” adds a separate entry of the source.
# Legend:
# [1] = Drug bioavailability detection in heparinized plasma (HPLC, MS/MS); assay type: in vivo, rat; settings: peak area count <1500 considered negative, 200 mg/kg oral gavage
# Method: Drug Bioavailability Detection—H4CBD bioavailability in heparinized plasma was determined via HPLC and MS/MS. In brief, 100 μL heparinized rat plasma was diluted with 100 μL Mass Spec Gold human serum (Golden West Diagnostics, MSG3200). The samples were analyzed using a WATERS TQS-Micro. The first quadrupole was set to 319.16 m/z and the third quadrupole isolated fragments of 181.02 m/z.
# Drug Bioavailability Detection—H4CBD bioavailability in heparinized plasma was determined via HPLC and MS chromatography.
# [2] = test system: AT1 mRNA; assay: Real-time qPCR on cardiac tissue, AT1; assay type: in vivo, rat
# Description: (§1) Real-Time qPCR—Gene expression was quantified by qPCR on cardiac tissue. Primers used were acquired from Integrated DNA Technologies and listed here 5′-3′: angiotensin MAS1 receptor (Mas1) Fw: […] (SEQ ID NO:1), Rv: […] (SEQ ID NO:2).
# [3] = test system: proteins involved in fatty acid uptake, metabolism and storage (liver); assay: Western blot of liver proteins involved in fatty acid uptake, metabolism and storage; assay type: in vivo, rat
# Description: Western Blot—Liver was used to measure proteins involved in fatty acid uptake, metabolism and storage. Densitometry values were quantified using ImageJ software (NIH) and normalized by correcting for densitometry values of representative protein bands below 37 kDa stained with Ponceau S. Results are reported as expression (%) compared to LETO.
# [4] = test system: Mas1 mRNA; assay: Real-time qPCR on cardiac tissue, Mas1; assay type: in vivo, rat; settings: 74% lower in OLETF control than LETO
# Description: as §1
# [5] = test system: Otsuka Long-Evans Tokushima Fatty (OLETF) rat; assay: Morphometrical measurements (body mass, abdominal fat, food and water intake, activity) in advanced MetS rats; assay type: in vivo
# Description: Animals—The Otsuka Long-Evans Tokushima Fatty (OLETF) rat is a monogenic model of diet-induced obesity accelerated by a mutation in the CCK receptor. […] At >40 weeks of age, OLETF rats suffer from severe metabolic dysfunction and therefore serve as a model of aged, severe MetS.
# (§2) Male lean Long Evan's Tokushima Otsuka (LETO) rats and obese Otsuka Long Evans Tokushima Fatty (OLETF) rats (Japan SLC Inc., Hamamatsu, Japan), both 14 weeks of age were assigned to the following groups (n=8/group): (1) vehicle-dosed LETO (LETO), (2) vehicle-dosed OLETF (OLETF), and (3) H4CBD-treated (200 mg/kg/day×4 weeks) OLETF (H4CBD). Rats were maintained in a specific pathogen-free, climate-controlled facility on a 12-hour light: dark cycle (07:00-19:00 and 19:00-07:00, respectively). All animals had free access to water and were fed rat chow (Teklad Global; fat 9.0%; carbohydrate 44.9%; protein 19.0%) ad libitum. Treatment intervention was initiated at 41 weeks of age. Phenotypic data (i.e. body mass, food intake) was collected daily for all animals.
# Purified H4CBD (>99%) was suspended in food grade sesame oil and administered by oral gavage at a dose of 200 mg/kg.
# Tissue Collection—After the 4-week study and 3 days following the OGTT, animals were fasted overnight and tissues were collected the following morning.
# as §2, with “Animals—Male” for “Male”, “facility at the University of California, Merced” for “facility”, “age.” for “age. Phenotypic data (i.e. body mass, food intake) was collected daily for all animals.”
# Body Mass (BM), Water, and Food Intake—BM was measured daily to calculate the appropriate drug and vehicle dose. Water, urine and food were measured once every 24 hours throughout the study.
# (§3) Telemeter Implantation—At 16 weeks, OLETF rats (n=5) were implanted with DSI telemeters (HD-S10) in the abdominal cavity to measure systolic blood pressure. […] Activity was measured every hour for 15 minutes for the duration of the study. Data were analyzed using A.R.T. software (DSI, St. Paul, MN).
# Drug Preparation and Administration—Purified H4CBD (>99%) was suspended in sesame oil and administered by oral gavage at a dose of 200 mg/kg.
# Tissue Collection—After the 4-week study period, animals were fasted overnight, and tissues were collected at sacrifice the following morning. BM was recorded before animals were decapitated and trunk blood was collected.
# [6] = test system: Otsuka Long-Evans Tokushima Fatty (OLETF) rat; assay: Liver triglyceride content; assay type: in vivo; settings: p<0.05
# [7] = test system: Otsuka Long-Evans Tokushima Fatty (OLETF) rat; assay: Systolic blood pressure by DSI radiotelemetry; assay type: in vivo; settings: for Average increase of systolic blood pressure versus non-treated OLETF: after the 7th day of the dose regimen
# Method: as §3
# [8] = test system: Otsuka Long-Evans Tokushima Fatty (OLETF) rat; assay: Observation of treated animals during dosing window; assay type: in vivo; settings: all treated animals, regardless of dose frequency relaxation
# [9] = test system: lipase activity; assay: Lipase activity assay (adipose, liver, plasma); assay type: in vivo, rat
# Method: Lipase Activity Assay—White adipose tissue (WAT) and liver was assayed for lipase activity.
# [10] = OLETF rats, 200 mg/kg oral, 4 weeks, p<0.05
# [11] = average between day 10 and day 30
# [12] = by day 13 through the end of the study
smiles,measurement,setting,value
"CCCCCc1cc(O)c(C2CC(C)CCC2C(C)C)c(O)c1 (stereo not drawn) [H4CBD, 2-(2-isopropyl-5-methylcyclohexyl)-5-pentylbenzene-1,3-diol]",H4CBD in end of study plasma,[1],only treated animals received drug; also recorded: only detected in plasma from treated rats
same,AT1 mRNA expression higher than control OLETF,[2],49%
same,"Downstream signaling proteins GPAM, DGAT1, CPTIA, ACOX1, ApoB and PRDX6",[3]; data not shown,comparable between groups
same,FATP5 expression,[3]; increased 109% in OLETF vs LETO,not effected
same,Increase of FATP2 expression,[3]; p<0.05,60%
same,Rescue (increase) of CD36 expression,[3]; p<0.05,48%
same,Mas1 mRNA expression,[4],not rescued
same,Activity score relative to OLETF control,"[5]; DSI HD-S10 telemeter, H4CBD n=3, OLETF n=2, p=0.0985, not significant",nearly doubled
same,Body mass (g),"[5]; H4CBD-treated OLETF rats, 200 mg/kg oral gavage, 4 weeks, mean ± SEM, n = 8",516 ± 21^^# g
same,"Final, absolute food intake","[5]; H4CBD-treated OLETF rats, 200 mg/kg oral, 4 weeks, average of 3 days, mean ± SEM",36 ± 2 g
same,Relative total fat (g/100 g BM),"[5]; H4CBD-treated OLETF rats, 200 mg/kg oral, 4 weeks, epi.+retro., mean ± SEM",7.8 ± 1.1 g/100 g BM
same,Relative epi. fat (g/100 g BM),"[5]; H4CBD-treated OLETF rats, 200 mg/kg oral, 4 weeks, epidydimal, mean ± SEM",1.2 ± 0.1^^# g/100 g BM
same,Relative final food intake (g/100 g BM),"[5]; H4CBD-treated OLETF rats, 200 mg/kg oral, 4 weeks, mean ± SEM",6.7 ± 0.4 g/100 g BM
same,Relative retro. fat (g/100 g BM),"[5]; H4CBD-treated OLETF rats, 200 mg/kg oral, 4 weeks, retroperitoneal, mean ± SEM",6.6 ± 0.9 g/100 g BM
same,"Initial, absolute food inake","[5]; H4CBD-treated OLETF rats, average of 3 days, mean ± SEM",34 ± 2 g
same,Reduction of relative combined (total) adipose compared to OLETF,"[5]; OLETF rats, 200 mg/kg oral, 4 weeks",25%
same,Change in food consumption compared to OLETF,"[5]; OLETF rats, 200 mg/kg oral, 4 weeks (Table 1)",not associated with a change in food consumption
same,Effect on body mass (BM),"[5]; OLETF rats, 200 mg/kg oral, 4 weeks, compared with vehicle LETO, 200 mg/kg",reduced BM in OLETF to LETO levels within the first week; also recorded: reduced BM to vehicle-treated LETO levels
same,Reduction of relative epidydimal fat compared to OLETF control,[5]; [10],35%
same,Reduction of relative retroperitoneal fat compared to OLETF control,[5]; [10],24%
same,BM of vehicle-treated OLETF higher than H4CBD-treated OLETF,"[5]; OLETF rats, 200 mg/kg oral, after first week (day 10-30), p<0.05",15%
same,Increased relative food consumption compared to OLETF control,[5]; [11],24%
same,Increased relative food intake consumption compared to LETO,[5]; [11],74%
same,Water intake higher than LETO,[5]; [12],> 600%
same,Water intake higher than OLETF control,[5]; [12],90%
same,Reduction of liver triglyceride content,[6],28%
same,"Systolic blood pressure, treated vs non-treated OLETF",[7]; 4 weeks telemetry,No significant difference; also recorded: did not reduce SBP
same,Average increase of systolic blood pressure versus non-treated OLETF,[7],4%
same,Average increase of systolic blood pressure versus non-treated OLETF,"[7]; H4CBD n=3, OLETF n=2",6.5 mmHg
same,Stool observation,[8],soft stool at multiple points of the dosing window
same,"Liver lipase activity (cytosolic, membrane)","[9]; LETO, OLETF, H4CBD",not different among groups
same,Fasted plasma lipase activity,[9]; data not shown,not significantly different among groups
same,Increase of adipose lipase activity compared to OLETF control,"[9]; white adipose tissue, tended, p=0.094",22%
